# According to patent US11919856B2, “Compounds” (UCL BUSINESS LTD, priority 2018, dated 2024):
# Like-named read-outs stand apart in the source and are kept apart here.
# Tests used:
# [1] = biological target: antithrombin (Homo sapiens, UniProt P01008); assay: Serpin inhibitory activity, antithrombin; format: biochemical; details: incubation with 50 μM
# Text: In order to investigate suitability of Compound 1 for progression into in vivo studies and the potential for taking forward as a clinical candidate for testing in human, Compound 1 was profiled against a panel of in vitro assays for off-targets considered predictive of potential safety liabilities. […] The measured potency of these marginal activities were at least 10-fold below the cellular activity of Compound 1 at blocking Z α1-antitrypsin polymerisation (pEC50 6.3). Loss of inhibitory activity represents a means by which possible off-target engagement with other serpins can be evaluated. However in contrast to α1-antitrypsin upon incubation with 50 μM Compound 1 the inhibitory activity of the homologues antithrombin, neuroserpin and antichymotrypsin was not affected.
# [2] = biological target: T1, Z α1-antitrypsin (Homo sapiens, UniProt P01009, E366K/V237A); assay: Secretion of Z α1-antitrypsin from CHO-TET-ON-Z-A1AT cells (immunoassay of supernatant); format: cell-based; set-up: expressed in transfected cells; host or cells: CHO Tet-On (CHO-K1) cells, doxycycline-induced
# Experimental: CHO Tet-On cells that conditionally express Z α1-antitrypsin (Ordóñez A et al. Hepatology 2013; 57(5):2049-60.) were simultaneously treated with 0.5 μg/mL […] and various concentrations of compounds for 48 hours in 6 well plates. Cells without doxycycline or treated with 1% v/v DMSO acted as controls. The cells were lysed and intracellular Z α1-antitrypsin polymer was evaluated by ELISA sandwich with the 2C1 monoclonal antibody (Miranda et al. Hepatology. 2010; 52:1078-88). Newly synthesised α1-antitrypsin was evaluated by growing cells induced to express Z α1-antitrypsin in DMEM without methionine (Met) and cysteine (Cys) for 1 h and then labelling with 1.3 MBq of ^35S-Met/Cys for 15 min. The cells were then rinsed and incubated in chase medium containing an excess of unlabeled Met and Cys for 0, 2 and 6 h. After the chase period, the medium was collected and cells were harvested. α1-Antitrypsin from the medium and cell lysates was immunoprecipitated with a polyclonal α1-antitrypsin antibody or the 2C1 monoclonal antibody that detects polymers by splitting each sample in two equal parts. Radiolabelled proteins were re-suspended in SDS loading buffer, boiled for 5 min, separated by 10% w/v acrylamide SDS-PAGE, and quantified by autoradiography.
# Its ability to block Z α1-antitrypsin polymerisation in the ER during folding was assessed by adding Compound 1 to CHO-TET-ON-Z-A1AT cells (Ordóñez et al. Hepatology. 2013; 57(5):2049-60) with simultaneous induction of Z α1-antitrypsin expression using doxycycline. […] To investigate whether in addition to blocking polymerisation, Compound 1 was also able to increase secretion of Z α1-antitrypsin, Z α1-antitrypsin expression was induced in CHO-TET-ON-Z-A1AT cells, Compound 1 was added, and the total Z α1-antitrypsin in the supernatant was measured by immunoassay after 6 hours.
# [3] = biological target: T1, Z α1-antitrypsin; assay: Circulating monomeric Z α1-antitrypsin in plasma of Z α1-antitrypsin transgenic mice; format: in vivo; set-up: a random insertion of the human Z α1-antitrypsin gene; from tissue; host or cells: liver and plasma of Z α1-antitrypsin transgenic mice (human Z transgene)
# Experimental: In order to investigate the therapeutic potential of Compound 1 in Z α1-antitrypsin deficiency, the compound was tested in a transgenic mouse model engineered with a random insertion of the human Z α1-antitrypsin gene (Teckman et al. Am J Physiol Gastrointest Liver Physiol. 2004; 286:G851-G62). To determine a suitable dose regimen for Compound 1 in these studies the total and unbound exposure in transgenic mice was estimated in an in silico model.
# To explore the PK-PD relationship of Compound 1, Z α1-antitrypsin transgenic animals were dosed with 100, 30 or 10 mg/kg Compound 1 three times a day and on day 6 blood and liver were harvested at 3 hr (˜Cmax) and 8 hr (Cmin) after the dose for the measurement of total and free drug in both tissues. Blood was also harvested for the measurement of monomeric Z α1-antitrypsin in plasma. Total concentrations of Compound 1 were determined by specific LC-MS/MS assay and the free unbound drug in both tissues was determined using equilibrium dialysis and used to derive unbound concentrations.
# Recent work has shown that a significant fraction of the total Z α1-antitrypsin in the circulation is in the polymeric conformation (Tan et al. Eur Respir J. 2014; 43(5):1501-4). […] Monomeric Z α1-antitrypsin was measured in plasma samples following 6 days of dosing and levels were normalised to each animals' pre-dose control levels to account for the natural variation of Z α1-antitrypsin between animals. […]
# Since Compound 1 blocks polymer formation in cells the effect of dosing Compound 1 on liver polymer levels was explored. […] On days 15 and 21 of dosing, changes of monomeric Z α1-antitrypsin plasma samples were determined as above, and increases of 7- to 8-fold over the pre-dosing baseline levels were observed, similar to the effect in animals dosed for 3 or 6 days, consistent with sustained target engagement through the dosing period. […] There was no difference observed in total liver polymer load via manual or quantitative scoring.
# [4] = biological target: T2, M α1-antitrypsin (Homo sapiens, UniProt P01009); assay: Stoichiometry of inhibition against chymotrypsin, M α1-antitrypsin; format: biochemical; details: M α1-antitrypsin pre-incubated with compound
# T2 construct: Alpha1-antitrypsin was purified from the plasma of ZZ and MM α1-antitrypsin homozygotes; from tissue; host or cells: plasma of MM homozygotes
# Experimental: Mutations that interfere with the opening of […] or that perturb its interaction with the N-terminal portion of the reactive centre loop alter the ability of serpins to inhibit target proteases. The stoichiometry of inhibition (SI) was determined for M and Z α1-antitrypsin in discontinuous experiments against a model target protease, chymotrypsin. The pre-incubation of both variants with Compound 1 led to a >98% loss of protease inhibitory activity. […] To investigate whether this activity was consistent with action as a chemical chaperone, M and Z α1-antitrypsin were unfolded in vitro into 6 M guanidine hydrochloride, and rapidly refolded by snap dilution into denaturant-free buffer in the presence or absence of Compound 1.
# T1 sequence (P01009 25-418 V237A/E366K): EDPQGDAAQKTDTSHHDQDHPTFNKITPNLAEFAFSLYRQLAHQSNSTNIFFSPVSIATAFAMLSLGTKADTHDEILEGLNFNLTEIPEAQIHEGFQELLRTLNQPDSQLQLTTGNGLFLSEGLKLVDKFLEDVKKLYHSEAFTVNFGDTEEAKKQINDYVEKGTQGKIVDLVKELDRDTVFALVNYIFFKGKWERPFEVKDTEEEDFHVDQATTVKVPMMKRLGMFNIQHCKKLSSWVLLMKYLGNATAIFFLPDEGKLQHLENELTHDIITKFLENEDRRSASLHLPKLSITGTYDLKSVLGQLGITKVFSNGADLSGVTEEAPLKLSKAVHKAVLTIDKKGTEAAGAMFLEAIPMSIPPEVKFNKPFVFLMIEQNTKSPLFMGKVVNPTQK
# T2 sequence (P01009 25-418): as the sequence (P01009 25-418 V237A/E366K) above, with A213V, K342E counted along it
# antithrombin, sequence (P01008 33-464): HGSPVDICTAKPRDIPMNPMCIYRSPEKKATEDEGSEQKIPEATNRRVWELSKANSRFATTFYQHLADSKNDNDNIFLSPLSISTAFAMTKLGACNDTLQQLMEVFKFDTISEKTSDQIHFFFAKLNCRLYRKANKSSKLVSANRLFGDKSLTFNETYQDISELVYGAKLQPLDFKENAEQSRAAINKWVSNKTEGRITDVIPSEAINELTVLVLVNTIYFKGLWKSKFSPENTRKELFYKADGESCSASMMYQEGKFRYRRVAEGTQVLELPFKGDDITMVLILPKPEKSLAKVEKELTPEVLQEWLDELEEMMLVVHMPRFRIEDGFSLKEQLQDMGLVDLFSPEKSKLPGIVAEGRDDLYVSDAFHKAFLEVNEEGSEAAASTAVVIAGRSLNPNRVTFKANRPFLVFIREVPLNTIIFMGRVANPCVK
compound,measurement,setting,value
"CCC[C@@H](NC(=O)c1cccc2c1CC(=O)N2)[C@@H](O)c1cccc(F)c1C [Compound 1, N-[(1S,2R)-1-(3-fluoro-2-methylphenyl)-1-hydroxypentan-2-yl]-2-oxo-2,3-dihydro-1H-indole-4-carboxamide]",inhibitory activity of antithrombin,[1],not affected
same,EC50,"[2]; CHO-TET-ON-Z-A1AT cells, after 6 hours, read-out: pEC50, secretion of Z α1-antitrypsin (converted)",501 nM
same,increase of secreted levels of Z α1-antitrypsin,"[2]; CHO-TET-ON-Z-A1AT cells, supernatant after 6 hours, compared to vehicle control",approximately 3 fold
same,EC50,"[2]; cellular secretion assay, read-out: EC50 measured for secretion of Z α1-antitrypsin",~300 nM
same,increase in circulating Z α1-antitrypsin,"[3]; 30 mg/kg and 10 mg/kg three times a day, 6 days","significant, dose-dependent increases"
same,increase of plasma concentrations of the serpin,[3]; transgenic mouse model,up to 8 fold
same,increase in circulating levels of Z α1-antitrypsin,"[3]; within 3 days of dosing, maintained throughout the experiment",7 fold
same,loss of protease inhibitory activity,[4],> 98%
